Legend:
[1] = total flooding evaluation in 1.28 m^3 enclosure (Ohmic Heating Test procedure); conditions: 1000 g agent, nitrogen 50 psi
Description: This example was run to evaluate the fire performance of a fluorinated ketone of this invention, CF3CF2C(O)CF(CF3)2 (the fluorinated ketone as prepared in Example 1), in a total flooding evaluation for a clean extinguishing agent.
For this evaluation, a 1.28 m^3 (0.915 m×0.915 m×1.525 m) steel reinforced polycarbonate “box” enclosure was used, into which a fixed piping system, normally designed to deliver a gaseous clean extinguishing agent, was filled instead with a composition that is liquid at room temperature and discharged into the “box” to extinguish a fire. Using this modified system and procedure, the liquid fluorinated ketone used, CF3CF2C(O)CF(CF3)2, could be discharged into the enclosure indirectly in the same manner as could a gaseous clean extinguishing agent and thus allow the liquid agent to extinguish an obstructed fire located remotely in the enclosure.
In this modified procedure, a Swagelok Whitey 2000 mL cylinder was filled with 1000 g of CF3CF2C(O)CF(CF3)2 and was super-pressurized with nitrogen to 50 psi (345 kPa). Attached to the bottom of the cylinder was a 0.25 in (0.6 cm) Swagelok Whitey SS1RFA-A stainless steel angle valve, to which was fixed 34 in (86.4 cm) of nominal 0.25 in (6.5 mm) piping arrangement, including a 0.25 in (6.5 mm) Jamesbury Clincher ¼-turn ball valve. The piping was connected to a Bete NF 0500 square edge orifice nozzle. […]

[2] = Micro-Cup Burner Test (extinguishing concentration; Mass Ratio Calculation vs HALON 1211)
Description: The Micro-Cup Burner Test is a laboratory test which measures the extinguishing ability of an agent based on the quantity of agent required to extinguish a fire under the following test conditions. The Micro-Cup Burner Test utilizes a quartz concentric-tube laminar-diffusion flame burner (micro-cup burner, of similar design to the above-described cup apparatus) aligned vertically with all flows upward. A fuel, typically propane unless otherwise specified, flows at 10.0 sccm (standard cubic centimeters per minute) through a 5-mm I.D. inner quartz tube which is centered in a 15-mm I.D. quartz chimney. The chimney extends 4.5 cm above the inner tube. Air flows through the annular region between the inner tube and the chimney at 1000 sccm. Prior to the addition of extinguishing composition, a visually stable flame is supported on top of the inner tube, and the resulting combustion products flow out through the chimney. An extinguishing composition to be evaluated is introduced into the air stream upstream of the burner. Liquid compositions are introduced by a syringe pump (which is calibrated to within 1%) and are volatilized in a heated trap. Gaseous compositions are introduced via a mass-flow controller to the air stream upstream from the burner. For consistency, the air-gaseous composition mixture then flows through the heated trap prior to its introduction to the flame burner. All gas flows are maintained by electronic mass-flow controllers which are calibrated to within 2%. The fuel is ignited to produce a flame and is allowed to burn for 90 seconds. After 90 seconds, a specific flow rate of composition is introduced, and the time required for the flame to be extinguished is recorded. The reported extinguishing concentrations are the recorded volume % of extinguishing composition in air required to extinguish the flame within an average time of 30 seconds or less.
The above-mentioned cup burner test measures the performance of an extinguishing composition by determining the minimum volume percent of composition in air required to extinguish a test fire. However, it is often desirable to directly compare the fire performance of an experimental extinguishing composition (e.g., a fluorinated ketone) against the performance of a state-of-the-art extinguishing composition, such as HALON™ 1211 fire extinguishing agent (CF2ClBr, a bromochlorofluorocarbon). One way to make such a comparison is to derive the mass ratio of experimental composition to HALON™ 1211 fire extinguishing agent from the volume percentages of each composition required for extinguishing. The mass ratio can be calculated by dividing the experimental composition's extinguishing volume percent by the HALON™ 1211 agent's extinguishing volume percent and multiplying the resulting quotient (which, according to the ideal gas law, also represents the ratio of mole percents) times the weight average molecular weight of the experimental composition divided by the molecular weight of HALON™ 1211 agent (165 g/mole).
In Comparative Example C1, the extinguishing concentration (volume % in air) of HALON™ 1211 fire extinguishing agent was determined as using the Micro-Cup Burner Test.
In Examples 1-16, the extinguishing concentration of several perfluorinated ketones was also determined using the Micro-Cup Burner Test. The mass ratio as compared to HALON™ 1211 fire extinguishing agent was then calculated using the Mass Ratio Calculation.
In Comparative Examples C2-C11, various fluorinated extinguishing compositions known in the art (hydrofluorocarbons, perfluorocarbons, hydrochlorofluorocarbons, hydrofluoroethers, and iodofluorocarbons) were evaluated for their extinguishing concentration, and subsequently their mass ratios were calculated with respect to HALON™ 1211 agent. […]

mice = assay: short term inhalation tests with mice; type: in vivo; conditions: mice exposed for four hours at 50,000 ppm in air
[3] = manual suppression full-scale streaming test, UL Standard 711 pan fires; conditions: heptane, 60 sec pre-burn
Description: These two examples were run to illustrate the fire performance of a fluorinated ketone of this invention, CF3CF2C(O)CF(CF3)2 (the fluorinated ketone as prepared in Example 1), using a manual suppression full-scale streaming test for a clean extinguishing agent.
For each example, a standard off-the-shelf Amerex 131b HALON™ 1211 handheld extinguisher was used to introduce the extinguishing composition to the fire. The extinguisher was equipped with a standard ½ in (1.3 cm) nominal diameter rubber hose with a clean extinguishing agent nozzle attached to the end. In each case, the composition was super-pressurized using dry nitrogen at 130-150 psi (900-1040 kPa).
Both fire extinguishing tests were run following essentially the same test procedures and conditions as outlined in UL Standard 711 for the 2B and 5B pan fire scenarios, as normally conducted for UL approval at Underwriters Laboratories, Inc., Northbrook, Ill. The only deviation from that test procedure was that the fire tests for these examples were conducted outside. The fire test pans for the respective fires were sized to be 2.5 times larger than the ultimate extinguisher rating. For example, a 2B UL-rated extinguisher rating requires a skilled firefighter to be able to extinguish a 5 ft^2 (0.46 m^2) fire, a 5B UL-rated extinguisher rating requires extinguishing a 12.5 ft^2(1.16 m^2) fire, etc. For both examples, the UL specified pans were 12 in (30 cm) deep, into which was introduced 4.0 in (10 cm) of water, onto which was introduced 2 in (5 cm) of commercial grade heptane for fuel, leaving a 6 in (15 cm) freeboard above the fuel surface. Each fire was allowed to pre-burn 60 seconds before extinguishing commenced, using an agent flow rate of 0.75-0.80 kg/sec. The discharge time for the extinguishing of the fire was recorded as was the amount of agent discharged.

Structure (SMILES): O=C(C(F)(F)C(F)(F)F)C(F)(C(F)(F)F)C(F)(F)F [Example 1, 1,1,1,2,4,4,5,5,5-nonafluoro-2-trifluoromethyl-butan-3-one]
- time to extinguishing of the obstructed fire from the beginning of agent discharge [1]: ≤ 35 s
- Mass Ratio to HALON™ 1211 ([2]; calculated from extinguishing volume % and molecular weight relative to HALON 1211 (165 g/mole)): 1.86
- Ext. Conc. (vol %) ([2]; volume % in air required to extinguish the flame within an average time of 30 seconds or less, propane fuel): 3.5 vol %
- acute toxicity (mice): low acute toxicity
- Agent Discharged ([3]; UL 2B pan): 2.59 kg
- Discharge Time ([3]; UL 2B pan): 3.5 s
- Agent Discharged ([3]; UL 5B pan): 2.87 kg
- Discharge Time ([3]; UL 5B pan): 3.8 s
